The values below come from publication PMC11281459 (Viruses, 2024).

Assay [1] has as its system SARS-CoV-2. Description: microbe, parasite or virus in culture. In kind it is cell-based. The note with it: Severe acute respiratory syndrome coronavirus 2, VeroE6/TMPRSS2, 72 h, read-out: EC50 across SARS-CoV-2 Omicron subvariants (CPE by CellTiter-Glo). (ATP-based viability assays read luminescence as a measure of living cells.)
Assay [2] deals with SARS-CoV-2. Description: microbe, parasite or virus in culture. In kind it is cell-based. The note with it: Severe acute respiratory syndrome coronavirus 2, VeroE6/TMPRSS2, 48 h, read-out: IC50 values across different SARS-CoV-2 Omicron subvariants.

As for `CNC(=O)C(=O)[C@H](CCC(C)(F)F)NC(=O)[C@@H]1[C@H]2CCC[C@H]2CN1C(=O)[C@@H](NC(=O)OC)C(C)(C)C` [MK-7845], the EC50 in the assay with SARS-CoV-2 [1] lay within 90 to 330 nM. The IC50 in the assay on SARS-CoV-2 [2] was 80 to 300 nM.

As usually defined, the EC50 is the midpoint of the concentration-response curve. What is called IC50 is the concentration at which inhibition is half-maximal.
